The text below walks through data of a melting point compilation (Tetko et al.; mined from patent text by program, amines drawn as free bases though some values may be those of a salt).

As usually defined, the melting point is the temperature, or range, at which the solid turns liquid. In the case of `O=C1N(Cc2cccc(C(F)(F)F)c2)c2ccccc2C12COc1cc3c(cc12)OCCO3` (stereo not drawn), the melting point lay within 131 to 134 °C.
As for `COC(=O)c1ccc2c(=O)c(Cc3ccccc3)coc2c1`, the figure is 98 to 100 °C; as for `CC(NC(=O)OCc1ccccc1)NC(=O)C1C(C)(C)CCC1(C)C` (stereo not drawn), 146 °C.
Take `CC[C@H](Cn1cnnn1)n1cnc2cc3c(=O)n([C@H](C)Cn4ncnn4)nnc3cc2c1=O`: the melting point was 198 to 200 °C.
In turn, `CCCOc1nc(Nc2ccc(F)c(Cl)c2)nc(NC2CCN(S(C)(=O)=O)CC2)n1` showed a melting point of 199 to 201 °C.
Consider `COC(=O)Cc1ccc(CNC(=O)[C@@H](CCCNC(N)=N[N+](=O)[O-])NC(=O)C(c2ccccc2)c2ccccc2)cc1`, for which the melting point lay in the range of 158 to 160 °C.
`CCCC(=O)c1cc2c(=O)cc(C(=O)OC)[nH]c2c(C)c1C` registered a melting point of 157 to 159 °C.
As for `Cc1cc(C)c(C(=O)COc2ccc(C(=O)C(=O)O)cc2)c(C)c1`, the figure is 144 to 145 °C; as for `Nc1cnc2ccc(C(F)(F)F)cc2c1-c1ccccc1`, 107 to 108 °C.
Compound `COC(=O)c1ccc(O)cc1[N+](=O)[O-]` came in with a melting point of 161 to 166 °C.
`CCC/C=C/c1ccc(C#CC(C)(C)O)c(F)c1` registered a melting point of 62 °C.
As for `COc1cc2c(cc1OC)[C@@H]1CN(C)CC[C@@H]1N=C2c1cccc(C(F)(F)F)c1` (relative stereo), the melting point lay within 215 to 217 °C.
For `Cc1cc(O)c(O)cc1S(=O)(=O)c1ccc(Cl)c([N+](=O)[O-])c1`, the melting point was in the range of 196 to 197 °C.
In turn, `FC(F)(F)c1cccc(-c2cc(CCl)on2)c1` displayed a melting point of 33 to 37 °C.
`O=C(NC(=O)c1c(F)cccc1F)Nc1ccc2c(c1)SC(c1ccc(Cl)cc1Cl)O2` (stereo not drawn) registered a melting point of 206 to 208 °C.
As to `CS(=O)(=O)c1ccc(-n2nc(C(F)(F)F)cc2-c2ccc([N+](=O)[O-])cc2)cc1`, the melting point was in the range of 203 to 205 °C.
Turning to `COc1cccc2nc3c(c(N)c12)CCCC3`, the melting point fell in the range of 187 to 188 °C.
As to `CCCCCCCNC(=O)Nc1ccc(N2CCCCC2)cc1C(=O)NCC1CCN(C(c2ccccc2)c2ccccc2)CC1`, the melting point fell in the range of 166 to 168 °C.
Take `NS(=O)(=O)c1ccc(OC2CCCCO2)s1` (stereo not drawn): the melting point was in the range of 90 to 92 °C.
Turning to `COc1ccc(CCCC(O)CCC(=O)O)cc1` (stereo not drawn), the melting point fell in the range of 67 to 68 °C.
To `CCOc1nc(NCc2ccncc2)nc(Nc2ccc3cc[nH]c3c2)n1` belongs 198 to 200 °C.
With `CC(C#N)(C(O)c1ccc(Cl)cc1Cl)n1cncn1` (stereo not drawn), the melting point is 164 to 168 °C.
`COc1ccc(OCc2ccc(OCc3nc(-c4ccccc4)oc3C)cc2)c(CC(=O)O)c1` registered a melting point of 134 to 136 °C.
The compound `COCc1cc(Cl)n2nc(SC)c(S(=O)(=O)c3ccccc3)c2n1` registered a melting point of 194 to 197 °C.
In turn, `CCOC(=O)CCCc1ccc(CCl)cc1` yielded a melting point of 152 to 155 °C.
To `CCc1ccc(C2COc3c(C)c(C)c(NC(=O)CC(C)(C)C)c(C)c32)cc1` (stereo not drawn) belongs 162 to 163 °C; to `N=C(N)Nc1nc(CSCCNc2ncc(Cc3ccc(Cl)cc3)c(=O)[nH]2)cs1`, 205 to 207 °C; to `COc1cc(C)nc(NC(=O)NS(=O)(=O)c2ccccc2CCC(F)(F)F)n1`, 174 to 175 °C.
To `Clc1ccc(Oc2ccccc2Oc2ncc(Br)cn2)nc1` belongs 93 to 95 °C; to `COc1ccc(Sc2ccncc2)c(N)c1`, 93 to 94 °C.
In turn, `COc1ccc(-n2nc(Sc3cccc(Cl)c3)c(C)c(C#N)c2=O)cc1` yielded a melting point of 123 to 124 °C.
Take `COC(=O)c1cnc(Cl)cc1NN`: the melting point amounted to 163 °C.
The compound `Cc1nc2[nH]c(=O)[nH]c2cc1-c1ccc([N+](=O)[O-])cc1` had a melting point of over 300 °C.
As to `CS(=O)(=O)N=C(Oc1ccccc1)Oc1ccccc1`, the melting point lay in the range of 124 to 126 °C.
As for `CN(C)C=Nc1ncc(C#Cc2ccc(Cl)cc2)c(Cl)n1`, the figure is 195 to 197 °C; as for `Cc1nc(-c2cccc3nc(N[C@@H]4CCc5ccccc54)ccc23)no1`, 105 °C.
On to `COc1ccc(N2C(=O)[C@@H](NC(=O)Cc3ccccc3)[C@H]2C=CC(=O)[C@@H]2CCCO2)cc1`, for which the melting point lay in the range of 159 to 162 °C.
In turn, `CCCCCCCc1ccc(C(=O)Nc2ccc3oc(Nc4ccc(CC)cc4)nc3c2)cc1` showed a melting point of 245 to 246 °C.
On to `COc1cc(C=O)ccc1OCc1nc(-c2cccc(OS(C)(=O)=O)c2)oc1C`, for which the melting point was in the range of 136 to 137 °C.
`CNC(CC(C)C)c1nc(-c2ccc3c(c2)Nc2ccccc2O3)cs1` (stereo not drawn) returned a melting point of 143 to 147 °C.
The compound `O=C1c2ccccc2C(=O)N1CC(=O)N1c2ccc(Cl)cc2N(Cc2ccccc2)C(=O)[C@H]2CCC[C@H]21` (relative stereo) registered a melting point of 241 to 243 °C.
To `CCOC(C#N)NC(=O)c1ccc(COC)cc1` (stereo not drawn) belongs 99 to 100 °C; to `COc1ccc(OC)c2c(Nc3ccc(C)c(O)c3)c(C#N)cnc12`, 240 to 242 °C.
For `Cc1nc2c3c(c(C(=O)N(C)C)cc2n1C)CCC1(Cc2ccccc2C1)N3`, the melting point lay within 178 to 179 °C.
To `O=C(O)c1cccnc1Nc1cccc([N+](=O)[O-])c1` belongs 262 to 264 °C.
To `FC(F)(F)c1ccc2nnc(-c3c(Cl)cccc3Cl)n2c1` belongs 104 to 105 °C; to `CCCCC#Cc1ccc(-c2cc(C(F)(F)F)nn2-c2ccc(S(C)(=O)=O)cc2)cc1`, 96 to 98 °C; to `COc1ccc(Cn2c(=O)c(C(=O)NC3CCCCC3)c(O)c3cc(F)cnc32)cc1`, 176 °C.
Compound `CC(C)c1nsc(N)c1C#N` came in with a melting point of 130 to 132 °C.
For `CCCCC1CCc2ccc(OCc3ccccn3)cc2C1=O` (stereo not drawn), the melting point lay in the range of 56 to 60 °C.
Take `CC(=O)Cc1nc2cc(C)ccc2c(=O)o1`: the melting point was 142 to 144 °C.
Turning to `CCOC(=O)c1nc2c(=O)[nH]c3cc(S(C)(=O)=O)ccc3n2c1C`, the melting point is over 250 °C.
`CC=Cc1c(-c2ccc(S(C)(=O)=O)cc2)cnn(-c2ccc(F)c(F)c2)c1=O` returned a melting point of 149 to 150 °C.
As for `Oc1cccc(-c2ccc3nnn(Cc4ccc5ncccc5c4)c3n2)c1`, the figure is 255 to 257 °C; as for `COc1cc(OC)nc(NC(=O)NS(=O)(=O)c2ncccc2OCCCl)n1`, 156 to 158 °C; as for `CCCCCCCCCCCCCCCCC1CC(Cn2cncn2)(c2ccc(Cl)cc2)N(C)O1` (stereo not drawn), 100 to 102 °C.
The compound `CC(=O)NCCN1CCc2cc(NC(=O)c3ccccc3-c3ccc(C(F)(F)F)cc3)ccc2C1` showed a melting point of 163 °C.
As for `COc1ccc(N2CCOCC2)c2sc(-c3nc4ccc(N5CCOCC5)nc4[nH]3)nc12`, the figure is 260 to 262 °C; as for `COC(=O)c1cc2cc(OCc3cccnc3)ccc2s1`, 126 to 127 °C.
In turn, `CCc1ccc(NCc2cc(OC)c(OC)c(OC)c2)cc1` had a melting point of 64 to 66 °C.
`COC(=O)c1nc(CCl)n(-c2ccc(Cl)cc2C(=O)c2ccccc2)n1`: the melting point fell in the range of 132 to 134 °C.
`CCCOc1ccc(Br)cc1-c1nc2c(C)cccc2c(=O)[nH]1` registered a melting point of 179 to 180 °C.
`O=C(O)CC(=O)Nc1ccccc1C(=O)O`: the melting point lay in the range of 171 to 173 °C.
